Laboratory results reported in patent US6407091B1, “β-lactamase inhibiting compounds” (Research Corporation Technologies, Inc., priority 1999, dated 2002).
Where a name gives a salt, the structure may show the parent alone. Read-outs that look alike come from different tables or passages of the source.

What was measured:
[1] = target: Class C β-lactamase of Enterobacter cloacae P-99 (Enterobacter cloacae, UniProt P05364); test: IC50 for inhibition of Class C β-lactamase of Enterobacter cloacae P-99 (nitrocefin hydrolysis); assay type: biochemical
Description: (§1) Representative compounds of formula I were evaluated as inhibitors of the Class C β-lactamase of Enterobacter cloacae P-99, a cephalosporinase, and TEM-1, a penicillinase, by relative IC50 analysis. The IC50 value represents the concentration of inhibitor required to effect a 50% loss of activity of free enzyme. The IC50 value of each compound was determined as follows. Following a 10 minute incubation of a dilute solution of enzyme (2.56 nM) and inhibitor (<0.64 mM), a […] of this incubation mixture was then further diluted into 1 mL nitrocefin solution, and the rate of hydrolysis was measured during a 1 minute period by monitoring the absorbance of nitrocefin as a function of time.

TEM-1, a penicillinase = TEM-1, a penicillinase (Escherichia coli, UniProt P62593); test: IC50 for inhibition of TEM-1 β-lactamase (nitrocefin hydrolysis); assay type: biochemical; details: read-out: IC50 Values for Inhibition of β-lactamase Derived from TEM-1
Description: as §1

[2] = Table 2, compounds of formula IV, procedure similar to Table 1, read-out: IC50 Values for Inhibition of β-lactamase Derived from P-99
[3] = read-out: IC50 Values for Inhibition of β-lactamase Derived from P-99
[4] = Table 2, compounds of formula IV, procedure similar to Table 1
[5] = Table 1, 10 minute incubation of enzyme (2.56 nM) and inhibitor, nitrocefin hydrolysis, relative to tazobactam standard, read-out: IC50 Values for Inhibition of β-lactamase Derived from P-99
[6] = Table 1, 10 minute incubation of enzyme (2.56 nM) and inhibitor, nitrocefin hydrolysis, relative to tazobactam standard

Class C β-lactamase of Enterobacter cloacae P-99, sequence (P05364 21-381): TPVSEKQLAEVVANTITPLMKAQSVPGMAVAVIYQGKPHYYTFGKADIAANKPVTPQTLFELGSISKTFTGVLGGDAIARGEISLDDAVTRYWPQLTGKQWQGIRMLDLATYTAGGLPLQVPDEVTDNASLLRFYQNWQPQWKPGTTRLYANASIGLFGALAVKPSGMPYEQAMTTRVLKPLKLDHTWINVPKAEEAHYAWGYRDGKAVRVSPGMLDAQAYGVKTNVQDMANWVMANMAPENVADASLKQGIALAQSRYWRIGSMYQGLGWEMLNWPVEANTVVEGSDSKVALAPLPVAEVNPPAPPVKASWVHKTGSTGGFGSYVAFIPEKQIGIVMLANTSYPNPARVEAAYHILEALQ
TEM-1, a penicillinase, sequence (P62593 24-286 limits assumed): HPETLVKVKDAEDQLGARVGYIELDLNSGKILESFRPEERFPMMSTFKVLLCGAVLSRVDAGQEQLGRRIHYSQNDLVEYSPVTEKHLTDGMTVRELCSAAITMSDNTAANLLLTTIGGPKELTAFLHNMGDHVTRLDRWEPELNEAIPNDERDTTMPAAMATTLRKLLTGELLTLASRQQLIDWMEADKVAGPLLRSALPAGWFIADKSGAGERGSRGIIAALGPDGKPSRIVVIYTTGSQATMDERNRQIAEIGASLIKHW

## CC(C)(C)OC(=O)/C=C/C1=C(C(=O)O)N2C(=O)/C(=C/c3ccccn3)C2S(=O)(=O)C1 (stereo not shown) [Compound 13e, Sodium 1,1-Dioxo-3-[2′E-(t-butoxycarbonylethenyl)]-7Z-[(2″-pyridyl)methylidene]-3-cephem-4-carboxylate]
[1]; [2]
  IC50: 1.48 µM

## C=C1C(CSc2nnnn2C)=C(C(=O)O)N2C(=O)C(=CC(=O)OC(C)(C)C)C2S1(=O)=O (stereo not shown) [Compound 6f, Sodium Salt of Benzhydryl 7-[(Z)-(tert-Butylcarboxy)methylene]-3′-desacetoxy-2-exomethylidene-3′-[1″-methyl-1″H-tetrazol-5″-yl)thio]cephalosporinate Sulfone]
[1]; [3]
  IC50: 2.38 µM

## COC(=O)/C=C/C1=C(C(=O)O)N2C(=O)/C(=C/c3ccccn3)C2S(=O)(=O)C1 (stereo not shown) [Compound 13b, Sodium 1,1-Dioxo-3-[2′E-(methoxycarbonylethenyl)]-7Z-[(2″-pyridyl)methylidene]-3-cephem-4-carboxylate]
[1]
  IC50: 0.2 µM
TEM-1, a penicillinase; [4]
  IC50: 0.02 µM

## CC1=C(C(=O)O)N2C(=O)/C(=C/c3ccccn3)C2S(=O)(=O)C1 (stereo not shown) [II: R1=2-pyr, R3=CH3, reference compound]
[1]
  IC50: 6.1 µM
TEM-1, a penicillinase
  IC50: 377 µM

## CC1=C(C(=O)O)N2C(=O)C(=CC(=O)OC(C)(C)C)C2S(=O)(=O)C1 (stereo not shown) [II: R1=CO2-t-Bu, R3=CH3, reference compound]
[1]
  IC50: 199 µM
TEM-1, a penicillinase
  IC50: 111 µM

## N#C/C=C/C1=C(C(=O)O)N2C(=O)/C(=C/c3ccccn3)C2S(=O)(=O)C1 (stereo not shown) [Compound 13a, Sodium 3-[2′E-(Cyanoethenyl)]-1,1-dioxo-7Z-[(2″-pyridyl)methylidene]-3-cephem-4-carboxylate]
[1]
  IC50: 0.01 µM
TEM-1, a penicillinase; [4]
  IC50: 2.7 µM

## COC(=O)/C(Cl)=C/C1=C(C(=O)O)N2C(=O)/C(=C/c3ccccn3)C2S(=O)(=O)C1 (stereo not shown) [Compound 13f]
[1]; [2]
  IC50: 0.2 µM
TEM-1, a penicillinase; [4]
  IC50: 0.02 µM

## C=C1C(C)=C(C(=O)O)N2C(=O)C(=Cc3ccccn3)C2S1(=O)=O (stereo not shown) [Compound 6c, Sodium Salt of 7-((Z)-(2″-Pyridinyl)methylene]-3′-desacetoxy-2-(exomethylidene)cephalosporinate Sulfone]
[1]; [3]
  IC50: 0.039 µM

## C=C1C(COC(C)=O)=C(C(=O)O)N2C(=O)C(=CC(=O)OC(C)(C)C)C2S1(=O)=O (stereo not shown) [Compound 6b, Sodium Salt of 7-[(Z)-(tert-Butoxycarbonyl)methylene]-2-(exomethylidene)cephalosporinate Sulfone]
[1]; [3]
  IC50: 1.55 µM

## C=C1C(COC(C)=O)=C(C(=O)O)N2C(=O)C(=Cc3ccccn3)C2S1(=O)=O (stereo not shown) [Compound 6a, Sodium Salt of 7-[(Z)-(2′-Pyridyl)methylene]-2-(exomethylidene)cephalosporanic Acid Sulfone]
[1]
  IC50: 0.165 µM

## Cn1nnnc1SCC1=C(C(=O)O)N2C(=O)C(=CC(=O)OC(C)(C)C)C2S(=O)(=O)C1 (stereo not shown) [II: R1=CO2-t-Bu, R3=CH2S(C2N4H3), reference compound]
[1]
  IC50: 112 µM
TEM-1, a penicillinase
  IC50: 0.123 µM

## C=C1C(=O)N2C(C(=O)O)=C(COC(C)=O)C(=C)S(=O)(=O)C12 (stereo not shown) [III: R3=CH2OAc, reference compound]
[1]
  IC50: 315 µM
TEM-1, a penicillinase
  IC50: > 2000 µM

## Sodium [2-1(Bisthiomethyl)exomethylene]-7-[(Z)-(2″-pyridinyl)methylene]-3′-desacetoxycephalosporinate [Compound 6g]
[1]; [5]
  IC50: 0.51 µM
TEM-1, a penicillinase; [6]
  IC50: 173 µM

## O=C(O)/C=C/C1=C(C(=O)O)N2C(=O)/C(=C/c3ccccn3)C2S(=O)(=O)C1 (stereo not shown) [Compound 13g, Disodium 3-[2′E-Carboxyethenyl]-1,1-dioxo-7Z-[(2″-pyridyl)methylidene]-3-cephem-4-carboxylate]
[1]; [2]
  IC50: 0.31 µM
TEM-1, a penicillinase; [4]
  IC50: 2.52 µM

## C=C1C(COC(C)=O)=C(C(=O)O)N2C(=O)/C(=C/C(=O)O)C2S1(=O)=O (stereo not shown) [Compound 6h, Disodium Salt of 7-[(Z)-(Carboxy)methylene]-2-(exomethylidene)-cephalosporinate Sulfone]
[1]; [5]
  IC50: 2.49 µM
TEM-1, a penicillinase; [6]
  IC50: 498 µM

## O=C(O)C1=C(/C=C/c2cccc[n+]2[O-])CS(=O)(=O)C2/C(=C\c3ccccn3)C(=O)N12 (stereo not shown) [Compound 13c, Sodium 1,1-Dioxo-3-{2′E-[2″-(pyridin-N-oxide)ethenyl]}-7Z-[(2′″-pyridyl)methylidene]-3-cephem-4-carboxylate]
[1]; [2]
  IC50: 0.6 µM
TEM-1, a penicillinase; [4]
  IC50: 0.006 µM

## C=C1C(C)=C(C(=O)O)N2C(=O)C(=CC(=O)OC(C)(C)C)C2S1(=O)=O (stereo not shown) [Compound 6d, Sodium Salt of 7-[(Z)-(tert-Butoxycarbonyl)methylene]-3′-desacetoxy-2(exomethylidene)cephalosporinate Sulfone]
[1]; [3]
  IC50: 48.6 µM

## C=C1C(C)=C(C(=O)O)N2C(=O)/C(=C/C(=O)O)C2S1(=O)=O (stereo not drawn) [Compound 6i, Disodium Salt 7-[(Z)(Carboxy)methylene]-3′-desacetoxy-2-(exo-methylidene)cephalosporinate Sulfone]
[1]; [5]
  IC50: 36.8 µM
TEM-1, a penicillinase; [6]
  IC50: 277 µM

## N#CC1=C(C(=O)O)N2C(=O)/C(=C/c3ccccn3)C2S(=O)(=O)C1 (stereo not shown) [Compound 19, Sodium 1,1-Dioxo-3-cyano-7Z-[(2′-pyridyl)methylidene]-3-cephem-4-carboxylate]
[1]
  IC50: 0.029 µM
TEM-1, a penicillinase; [4]
  IC50: 2.34 µM

## CC(=O)OCC1=C(C(=O)O)N2C(=O)C(=Cc3ccccn3)C2S(=O)(=O)C1 (stereo not shown) [II: R1=2-pyr, R3=CH2OAc, reference compound]
[1]
  IC50: 1.35 µM
TEM-1, a penicillinase
  IC50: 14.4 µM
